Legend:
[1] = Turbidity measurement (LCST/UCST-like behavior, Tt); assay type: physicochemical; settings: for Tt for the LCST-like behavior: Tt = temperature at half the maximum turbidity, mean ± standard error, at least three measurements; for Temperature-responsive behavior in turbidity measurement: heating to 90 °C and cooling to 5 °C at 1 °C/min, turbidity at 400 nm
Procedure: Temperature-responsive properties (LCST/UCST-like behavior and its reversibility) were investigated by using a JASCO V-660 spectral photometer (JASCO, Tokyo, Japan). Each peptide was dissolved in phosphate buffer containing NaCl (pH 7.4, 27.4 mM Na2HPO4, 17.8 mM NaH2PO4, 1 M NaCl). NaCl in this concentration is used as an additive to trigger an LCST-like behavior for the inverse transition cycling (a method to purify a protein exploiting the LCST-like behavior of ELPs).[9] The turbidity at 400 nm of each branched ELP solution was traced while increasing or decreasing the temperature at a rate of 0.5 °C/min, except for samples at 0.5 mM, which were traced at 1 °C/min for heating–cooling cycle measurements. For the samples at 0.5 mM, after heating to 90 °C or cooling to 5 °C, the samples were vortexed to eliminate any possible concentration gradients caused by peptide precipitation and kept at 90 or 5 °C for 30 min before starting the subsequent cooling or heating, respectively. The transition temperature (Tt) for LCST was defined as a temperature at which the turbidity of the solution reaches half the maximum value while increasing the temperature. Measurements were performed at least three times.

[2] = CD measurement (aggregation observed in sample); assay type: physicochemical; settings: 0.1 mg/mL in filtered phosphate buffer pH 7.4 without NaCl; 10 to 90 °C
Procedure: CD measurements were carried out using a J-725 spectropolarimeter (JASCO) for [α-E(F1)]5-F1 and [γ-E(F1)]5-F1 in a cuvette with a path length of 1.0 mm. Each peptide was dissolved in filtered phosphate buffer (pH 7.4, 27.4 mM Na2HPO4, and 17.8 mM NaH2PO4) at a concentration of 0.1 mg/mL. […] Spectra were obtained from 190 to 260 nm at temperatures ranging from 10 to 90 °C with 20 °C intervals. Each measurement was performed after 3 min of equilibration at the target temperature. After subtracting the background spectra, Savitzky–Golay filters were applied to smooth all spectra.

ThT fluorescence assay = assay type: physicochemical; settings: peptide 1 mM; 50 μM ThT; phosphate buffer pH 7.4 with 1 M NaCl; excitation 446 nm, emission 483 nm
Procedure: A ThT fluorescence assay was conducted using an FP-8500 fluorescence spectrometer (JASCO Co.). The phosphate buffer solutions (pH 7.4, 27.4 mM Na2HPO4, 17.8 mM NaH2PO4) of [α-E(F1)]5-F1 (1 or 0.5 mM) containing 1 M NaCl and 50 μM ThT were prepared. The temperature change rates were the same as those in the turbidity measurements. Using an excitation wavelength of 446 nm, the ThT fluorescence intensities at 483 nm upon temperature changes or over time were recorded.

[3] = DLS measurement of particle size distribution; assay type: physicochemical; settings: peptide 0.5 mM, filtered phosphate buffer pH 7.4 with 1 M NaCl
Procedure: The particle size distribution of branched ELPs was analyzed in filtered phosphate buffer (pH 7.4, 27.4 mM Na2HPO4, 17.8 mM NaH2PO4) containing 1 M NaCl using DLS with a Zetasizer Nano ZS (Malvern Instruments, Worcestershire, U.K.) DLS analysis was performed at temperatures ranging from 15 to 55 °C with 10 °C intervals for [α-E(F1)]n-F1 and [γ-E(F1)]n-F1 under conditions where the ELPs have Tt values around 30 °C for LCST-like behavior (n = 4, 2.5 mM; n = 5, 1 mM; n = 6, 0.5 mM). Additionally, a solution of [α-E(F1)]5-F1 at 0.5 mM was analyzed at 20, 60, and 90 °C. The measurement duration was selected automatically. The parameter data set “protein” (data set: refractive index, 1.450; absorption, 0.001) was used as the material parameter, and the parameter data set “water” (data set: refractive index, 1.330; viscosity, 0.8872) was chosen as the dispersant parameter. Attenuation was selected automatically.

[4] = monomeric pentapeptide; cited from earlier work
Source text: Short ELPs with a (VPGVG)n sequence ...

[5] = peptide 1.5 mM, turbidity at 400 nm on heating 0.5 °C/min, phosphate buffer pH 7.4 with 1 M NaCl
[6] = peptide 2.5 mM, turbidity at 400 nm on heating 0.5 °C/min, phosphate buffer pH 7.4 with 1 M NaCl
[7] = peptide 4 mM, turbidity at 400 nm on heating 0.5 °C/min, phosphate buffer pH 7.4 (27.4 mM Na2HPO4, 17.8 mM NaH2PO4) with 1 M NaCl
[8] = peptide 0.5 mM, phosphate buffer pH 7.4 with 1 M NaCl
[9] = peptide 0.5 mM, turbidity at 400 nm on heating (1 °C/min for heating-cooling cycle measurements), phosphate buffer pH 7.4 with 1 M NaCl
[10] = peptide 1 mM, turbidity at 400 nm on heating 0.5 °C/min, phosphate buffer pH 7.4 with 1 M NaCl

Tt for the LCST-like behavior [1, 6] | Tt for the LCST-like behavior [1, 9] | Tt for the LCST-like behavior [1, 10] | Molecule | further results
29.98 ± 1.82 °C | – | – | CC(C)[C@H](NC(=O)CNC(=O)[C@@H]1CCCN1C(=O)[C@H](Cc1ccccc1)NC(=O)CC[C@H](NC(=O)[C@H](CCC(=O)N[C@@H](Cc1ccccc1)C(=O)N1CCC[C@H]1C(=O)NCC(=O)N[C@H](C(=O)NCC(N)=O)C(C)C)NC(=O)[C@@H](N)CCC(=O)N[C@@H](Cc1ccccc1)C(=O)N1CCC[C@H]1C(=O)NCC(=O)N[C@H](C(=O)NCC(N)=O)C(C)C)C(=O)N[C@@H](CCC(=O)N[C@@H](Cc1ccccc1)C(=O)N1CCC[C@H]1C(=O)NCC(=O)N[C@H](C(=O)NCC(N)=O)C(C)C)C(=O)N[C@@H](Cc1ccccc1)C(=O)N1CCC[C@H]1C(=O)NCC(=O)N[C@H](C(=O)NCC(N)=O)C(C)C)C(=O)NCC(N)=O [[α-E(F1)]4-F1] | Tt for the LCST-like behavior [1, 5]: 47.04 ± 0.81 °C; Tt for the LCST-like behavior [1, 7]: 21.12 ± 1.68 °C
13.86 ± 0.33 °C | 56.92 ± 1.28 °C | – | CC(C)[C@H](NC(=O)CNC(=O)[C@@H]1CCCN1C(=O)[C@H](Cc1ccccc1)NC(=O)CC[C@H](NC(=O)[C@H](CCC(=O)N[C@@H](Cc1ccccc1)C(=O)N1CCC[C@H]1C(=O)NCC(=O)N[C@H](C(=O)NCC(N)=O)C(C)C)NC(=O)[C@H](CCC(=O)N[C@@H](Cc1ccccc1)C(=O)N1CCC[C@H]1C(=O)NCC(=O)N[C@H](C(=O)NCC(N)=O)C(C)C)NC(=O)[C@@H](N)CCC(=O)N[C@@H](Cc1ccccc1)C(=O)N1CCC[C@H]1C(=O)NCC(=O)N[C@H](C(=O)NCC(N)=O)C(C)C)C(=O)N[C@@H](CCC(=O)N[C@@H](Cc1ccccc1)C(=O)N1CCC[C@H]1C(=O)NCC(=O)N[C@H](C(=O)NCC(N)=O)C(C)C)C(=O)N[C@@H](Cc1ccccc1)C(=O)N1CCC[C@H]1C(=O)NCC(=O)N[C@H](C(=O)NCC(N)=O)C(C)C)C(=O)NCC(N)=O [[α-E(F1)]5-F1] | Aggregation behavior in CD sample [2]: apparent aggregation behavior was not observed; ThT fluorescence intensity upon heating (ThT fluorescence assay): sharp increase in fluorescence intensity around Tt; Temperature-responsive behavior in turbidity measurement [1, 8]: both LCST- and UCST-like behavior; Solubility at 90 °C ([1]; peptide 1 mM and 2.5 mM at 90 °C, phosphate buffer pH 7.4 with 1 M NaCl, images of measurement cell): insoluble; Hydrodynamic diameter at 20, 60 and 90 °C [3]: larger hydrodynamic diameters at 60 °C compared to the ones at 20 or 90 °C
7.68 ± 0.80 °C | 33.80 ± 0.38 °C | 19.76 ± 0.97 °C | CC(C)[C@H](NC(=O)CNC(=O)[C@@H]1CCCN1C(=O)[C@H](Cc1ccccc1)NC(=O)CC[C@H](NC(=O)[C@H](CCC(=O)N[C@@H](Cc1ccccc1)C(=O)N1CCC[C@H]1C(=O)NCC(=O)N[C@H](C(=O)NCC(N)=O)C(C)C)NC(=O)[C@H](CCC(=O)N[C@@H](Cc1ccccc1)C(=O)N1CCC[C@H]1C(=O)NCC(=O)N[C@H](C(=O)NCC(N)=O)C(C)C)NC(=O)[C@@H](N)CCC(=O)N[C@@H](Cc1ccccc1)C(=O)N1CCC[C@H]1C(=O)NCC(=O)N[C@H](C(=O)NCC(N)=O)C(C)C)C(=O)N[C@@H](CCC(=O)N[C@@H](Cc1ccccc1)C(=O)N1CCC[C@H]1C(=O)NCC(=O)N[C@H](C(=O)NCC(N)=O)C(C)C)C(=O)N[C@@H](CCC(=O)N[C@@H](Cc1ccccc1)C(=O)N1CCC[C@H]1C(=O)NCC(=O)N[C@H](C(=O)NCC(N)=O)C(C)C)C(=O)N[C@@H](Cc1ccccc1)C(=O)N1CCC[C@H]1C(=O)NCC(=O)N[C@H](C(=O)NCC(N)=O)C(C)C)C(=O)NCC(N)=O [[α-E(F1)]6-F1] | –
30.25 ± 0.23 °C | – | – | CC(C)[C@H](NC(=O)CNC(=O)[C@@H]1CCCN1C(=O)[C@H](Cc1ccccc1)NC(=O)CC[C@H](NC(=O)CC[C@H](NC(=O)CC[C@H](NC(=O)CC[C@H](N)C(=O)N[C@@H](Cc1ccccc1)C(=O)N1CCC[C@H]1C(=O)NCC(=O)N[C@H](C(=O)NCC(N)=O)C(C)C)C(=O)N[C@@H](Cc1ccccc1)C(=O)N1CCC[C@H]1C(=O)NCC(=O)N[C@H](C(=O)NCC(N)=O)C(C)C)C(=O)N[C@@H](Cc1ccccc1)C(=O)N1CCC[C@H]1C(=O)NCC(=O)N[C@H](C(=O)NCC(N)=O)C(C)C)C(=O)N[C@@H](Cc1ccccc1)C(=O)N1CCC[C@H]1C(=O)NCC(=O)N[C@H](C(=O)NCC(N)=O)C(C)C)C(=O)NCC(N)=O [[γ-E(F1)]4-F1] | Tt for the LCST-like behavior [1, 5]: 46.52 ± 0.67 °C; Tt for the LCST-like behavior [1, 7]: 20.75 ± 0.47 °C
17.38 ± 0.10 °C | 61.87 ± 0.60 °C | 34.73 ± 0.52 °C | CC(C)[C@H](NC(=O)CNC(=O)[C@@H]1CCCN1C(=O)[C@H](Cc1ccccc1)NC(=O)CC[C@H](NC(=O)CC[C@H](NC(=O)CC[C@H](NC(=O)CC[C@H](NC(=O)CC[C@H](N)C(=O)N[C@@H](Cc1ccccc1)C(=O)N1CCC[C@H]1C(=O)NCC(=O)N[C@H](C(=O)NCC(N)=O)C(C)C)C(=O)N[C@@H](Cc1ccccc1)C(=O)N1CCC[C@H]1C(=O)NCC(=O)N[C@H](C(=O)NCC(N)=O)C(C)C)C(=O)N[C@@H](Cc1ccccc1)C(=O)N1CCC[C@H]1C(=O)NCC(=O)N[C@H](C(=O)NCC(N)=O)C(C)C)C(=O)N[C@@H](Cc1ccccc1)C(=O)N1CCC[C@H]1C(=O)NCC(=O)N[C@H](C(=O)NCC(N)=O)C(C)C)C(=O)N[C@@H](Cc1ccccc1)C(=O)N1CCC[C@H]1C(=O)NCC(=O)N[C@H](C(=O)NCC(N)=O)C(C)C)C(=O)NCC(N)=O [[γ-E(F1)]5-F1] | Aggregation behavior in CD sample [2]: apparent aggregation behavior was not observed; Temperature-responsive behavior in turbidity measurement [1, 8]: both LCST- and UCST-like behavior
8.63 ± 0.31 °C | 34.56 ± 0.48 °C | 23.66 ± 0.06 °C | CC(C)[C@H](NC(=O)CNC(=O)[C@@H]1CCCN1C(=O)[C@H](Cc1ccccc1)NC(=O)CC[C@H](NC(=O)CC[C@H](NC(=O)CC[C@H](NC(=O)CC[C@H](NC(=O)CC[C@H](NC(=O)CC[C@H](N)C(=O)N[C@@H](Cc1ccccc1)C(=O)N1CCC[C@H]1C(=O)NCC(=O)N[C@H](C(=O)NCC(N)=O)C(C)C)C(=O)N[C@@H](Cc1ccccc1)C(=O)N1CCC[C@H]1C(=O)NCC(=O)N[C@H](C(=O)NCC(N)=O)C(C)C)C(=O)N[C@@H](Cc1ccccc1)C(=O)N1CCC[C@H]1C(=O)NCC(=O)N[C@H](C(=O)NCC(N)=O)C(C)C)C(=O)N[C@@H](Cc1ccccc1)C(=O)N1CCC[C@H]1C(=O)NCC(=O)N[C@H](C(=O)NCC(N)=O)C(C)C)C(=O)N[C@@H](Cc1ccccc1)C(=O)N1CCC[C@H]1C(=O)NCC(=O)N[C@H](C(=O)NCC(N)=O)C(C)C)C(=O)N[C@@H](Cc1ccccc1)C(=O)N1CCC[C@H]1C(=O)NCC(=O)N[C@H](C(=O)NCC(N)=O)C(C)C)C(=O)NCC(N)=O [[γ-E(F1)]6-F1] | –
– | – | – | H-FPGVG-NH2 [F1, monomeric elastin-like pentapeptide Phe-Pro-Gly-Val-Gly amide] | Coacervation (LCST-like behavior) [4]: did not show coacervation

Reference: paper PMC11558673, “Exploring LCST- and UCST-like Behavior of Branched Molecules Bearing Repeat Units of Elastin-like Peptides as Side Components” (Biomacromolecules, 2024)
